This passage reports IC50 results from patent publication US4590189A, “Condensed pyrrolinone derivatives, their production and use” (Takeda Chemical Industries, Ltd., priority 1982, dated 1986).

For orientation: IC50 means the point on the concentration scale where inhibition reaches its midpoint.

This test concerns the target benzodiazepine receptor. Description: Specific benzodiazepine receptor binding: displacement of [^3 H] diazepam in crude mitochondrial fractions of rat cerebral cortex. The note with it: [^3 H] diazepam 2 nM, pH 7.4, 4° C., 20 minutes; read-out: IC50, effect on specific binding of [^3 H] diazepam. More on the design: species or system rat (male SD strain). How it is done:
The pharmacological properties of the compounds (I) of this invention were investigated by determining the substituting power thereof for radioactive diazepam from a benzodiazepine receptor.
Specific benzodiazepine receptor binding was carried out according to the method of C. Braestrup and R. F. Squiras (European J. Pharmacol., Vol. 48, 263-270, 1978). Thus, crude mitochondrial fractions obtained from the cerebral cortex of male SD strain rats 9 to 10 weeks of age were suspended in 50 mM Tris-HCl buffer (pH 7.4) and incubated with one of a series of concentrations of the test compound and [^3 H] diazepam (final concentration 2 nM) at 4° C. for 20 minutes. Then, the suspension was filtered through a Whatman GF/B glass fiber filter and the radioactivity of [^3 H] diazepam on the filter was measured by the liquid scintillation method. The concentration of the test drug which caused a 50% inhibition of [^3 H] diazepam specific binding was taken as the IC50 value.
`COc1ccc(N2C(=O)c3ccc(Cl)cc3C2CC(=O)N2CCN(C)CC2)cc1` (stereo not drawn): the IC50 is 1.99 nM.
Turning to `COc1ccc(N2C(=O)c3ccccc3C2CC(=O)N2CCCCC2)cc1` (stereo not drawn), the IC50 was determined as 4.46 nM.
In the case of `COc1ccc(N2C(=O)c3ccc(Cl)cc3C2CC(=O)N2CCCCC2)cc1` (stereo not drawn) it was 0.794 nM; in that of `COc1ccc(N2C(=O)C3=C(SCCS3)C2CC(=O)N2CCCCC2)cc1` (stereo not drawn), 1.05 nM; in that of `O=C(CC1c2ccccc2C(=O)N1c1ccc(Cl)cc1)N1CCCCC1` (stereo not drawn), 8.86 nM.
The same measure for `O=C(CC1C2=C(SCCS2)C(=O)N1c1ccc(Cl)cc1)N1CCCCC1` (stereo not drawn): 9.55 nM; for `CN(Cc1ccccc1)C(=O)CC1c2ccccc2C(=O)N1c1ccccc1` (stereo not drawn): 19.5 nM; for `O=C(CC1C2=C(SCCS2)C(=O)N1c1ccc(Cl)cc1)N1CCCCCC1` (stereo not drawn): 5.75 nM.
The same measure for `COc1ccc(N2C(=O)c3ccccc3C2CC(=O)N2CCSC2)cc1` (stereo not drawn): 4.9 nM; for `O=C(CC1C2=C(SCCS2)C(=O)N1c1ccccc1)N1CCCCC1` (stereo not drawn): 7.58 nM.
For `COc1ccc(N2C(=O)c3ccc(N)cc3C2CC(=O)N2CCCCC2)cc1` (stereo not drawn), the IC50 is 3.8 nM.
For `O=C(CC1c2ccccc2C(=O)N1c1ccc2ccc(Cl)nc2n1)N1CCCCC1` (stereo not drawn), the IC50 stood at 0.645 nM.
